Data from US20250326755A1, “CYCLIC QUATERNARY AMMONIUM SALT COMPOUND, AND PREPARATION METHOD THEREFOR AND USE THEREOF” (YICHANG HUMANWELL PHARMACEUTICAL CO., LTD., priority 2022, published 2025).

How the values were obtained:
Format in all cases: in vivo, SD rats
sciatic nerve of the rat = conditions: rat, in vivo
Procedure: The experimental methods described in the following test examples were standard procedures unless otherwise specified. All experimental animals used in the following test examples were SD rats purchased from Hunan Slac Jingda Experimental Animal Co., Ltd. Other test materials, unless stated otherwise, were purchased from conventional biochemical reagent suppliers.
The compounds listed in Table 1 and levobupivacaine hydrochloride (positive control) were administered to three groups of rats fully acclimated to the experimental environment, with one rat per group.
Solution Preparation: 2 mg/ml Levobupivacaine Hydrochloride Injection: 2.670 ml of 7.5 mg/ml levobupivacaine hydrochloride injection (Batch No. 92S0702) was pipetted into a 10 ml volumetric flask. 0.9% NaCl solution was added until the meniscus was level with the calibration line, and the solution was inverted and mixed thoroughly, to prepare 2 mg/ml levobupivacaine hydrochloride injection. 2 mg/ml Example Compound Solution: 6.6 mg of the example compound was accurately weighed and dissolved in 3.3 ml of 0.9% NaCl solution to prepare a 2 mg/ml example compound solution.
Both the positive control and the example compound were administered to each rat at 2 mg/ml, with an administration volume of 5 ml/kg, in a single injection near the sciatic nerve of the rat. After the administration, the rat was placed on a preheated hot plate (50±0.1° C.) of an intelligent hot plate instrument. […] The maximum thermal latency was controlled at 60 s. […] Any urine or feces on the hot plate was promptly cleaned and dried before subsequent tests.
Thermal latency results were expressed as the maximum proportional effect (MPE), calculated using the following formula.
Wherein: B represented the basal thermal latency of the rats; P was the maximum thermal latency C was the observed thermal latency at the detection time point.
Measurements were considered invalid if the MPE was less than 50% of the maximum proportional effect. If two consecutive measurements yielded an MPE of less than […], the experiment was terminated.

[1] = tested on: rat subcutaneous infiltration model; experiment: Local anesthetic effect by subcutaneous infiltration, Von Frey needle stimulation of back skin
[2] = tested on: rat subcutaneous infiltration model; experiment: as above; conditions: 1 mg/ml, 0.5 mL subcutaneous injection on the back, 10 rats
Procedure: After shaving and disinfecting the backs of SD rats (half male and half female) weighing 190-210 grams, a circle with a diameter of approximately 1.5 cm was drawn on one side of the exposed skin. 0.5 mL of a solution containing the drug was subcutaneously injected into the skin in the center. The solution, using physiological saline as the solvent, contained either 2 mg/ml bupivacaine hydrochloride or 1 mg/ml concentration of the compounds listed in Table 2 of the present application. Each group consisted of 10 rats. A Von Frey fiber with a 100-gram force was attached to a needle for local skin stimulation. One minute after drug administration, the rat's response to the stimulus was measured. Testing was conducted at 6 different points within the marked area of drug administration. Skin contraction, avoidance, and other behaviors following stimulation were observed and recorded. Three points in the center and three points around the circle were stimulated, and the number of skin contraction and avoidance behaviors was recorded as N6. […] Each compound was tested on 10 rats.

CCCC[N+]1(CCCCOc2ccccc2)CCCC[C@H]1C(=O)Nc1ccc(F)cc1 (stereo partly drawn) [Compound of Example 39, (2S)-1-Butyl-2-((4-fluorophenyl)carbamoyl)-1-(4-phenoxybutyl)piperidine bromide]
Duration/h (sciatic nerve of the rat): 72 to 96 h | Onset Time/min (sciatic nerve of the rat): 1 min | Duration/h ([1]; Drug Concentration 0.3 mmol/L): 24 to 48 h | Duration/h ([1]; Drug Concentration 1 mmol/L): 48 to 72 h | Duration/h [2]: 72 to 96 h | Onset Time/min [2]: 1 min
